Activity data for 1 compound are collected here from ChEMBL document CHEMBL5316264, “Identification of N- and C-3-Modified Laudanosoline Derivatives as Novel Influenza PAN Endonuclease Inhibitors” (J Med Chem, 2023).

Each structure is given as a SMILES string. Calls of active or inactive are those of the source. The rule behind the calls is not given here.

In the experiment the test system is Influenza A virus. The experiment in a line: Antiviral activity against influenza A virus A/WSN/33 (H1N1) infected in MDCK cells at 20 uM pre-infected with virus for 1 hr followed by compound addition and measured after 24 hrs post infection. Format: functional, organism-based.

As for `CC(=O)N[C@H]1[C@H]([C@H](O)[C@H](O)CO)OC(C(=O)O)=C[C@@H]1NC(=N)N`, the outcome was inactive.
